Measurements from ChEMBL document CHEMBL6109155, “Discovery of Phenylacylpiperidine as Novel sEH Inhibitors through Scaffold Hopping of Natural Stilbene” (J Med Chem, 2025).
Activity calls are given as the source filed them. The calls are words filed in the database; no cut-off is given here.

Key:
[1] = tested on: Mus musculus; assay: Anti-inflammatory activity in BALB/c mouse model of carrageenan-induced paw edema assessed as inhibition of paw swelling at 20 mg/kg, po measured for 0.5 hrs relative to control; type: functional; conditions: Mus musculus, BALB/c
[2] = tested on: Mus musculus; assay: Anti-inflammatory activity in BALB/c mouse model of carrageenan-induced paw edema assessed as inhibition of paw swelling at 20 mg/kg, po measured for 4 hrs relative to control; type: functional
[3] = molecular target: T1, Bifunctional epoxide hydrolase 2 (Mus musculus, UniProt P34914); assay: biochemical
T1 sequence (P34914 whole entry): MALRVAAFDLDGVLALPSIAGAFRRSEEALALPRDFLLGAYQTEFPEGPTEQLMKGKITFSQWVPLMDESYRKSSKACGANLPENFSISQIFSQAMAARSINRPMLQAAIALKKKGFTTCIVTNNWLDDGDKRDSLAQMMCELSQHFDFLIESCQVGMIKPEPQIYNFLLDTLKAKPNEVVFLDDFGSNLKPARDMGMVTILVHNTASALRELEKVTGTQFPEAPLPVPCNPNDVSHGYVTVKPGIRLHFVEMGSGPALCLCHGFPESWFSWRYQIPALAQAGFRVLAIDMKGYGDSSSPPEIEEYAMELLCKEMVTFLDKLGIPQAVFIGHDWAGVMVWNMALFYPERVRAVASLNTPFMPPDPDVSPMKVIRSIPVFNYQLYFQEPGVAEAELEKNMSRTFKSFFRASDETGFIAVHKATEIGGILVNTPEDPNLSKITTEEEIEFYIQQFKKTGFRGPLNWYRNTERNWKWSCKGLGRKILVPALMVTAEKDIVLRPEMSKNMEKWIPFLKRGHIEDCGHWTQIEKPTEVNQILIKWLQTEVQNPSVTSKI
Description: Inhibition of C57BL/6J mouse brain sEH using 14,15-EET as substrate preincubated for 15 mins followed by substrate addition by HPLC-MS analysis

[4] = tested on: Mus musculus; assay: Anti-inflammatory activity in BALB/c mouse model of carrageenan-induced paw edema assessed as increase in ratio of 11,12-EET to DHET plasma levels at 10 mg/kg, po measured after 6 hrs; type: functional, organism-based
[5] = tested on: Mus musculus; assay: Anti-inflammatory activity in BALB/c mouse model of carrageenan-induced paw edema assessed as increase in ratio of 8,9-EET to DHET plasma levels at 10 mg/kg, po measured after 6 hrs; type: functional, organism-based
[6] = tested on: RAW264.7; assay: Upregulation of IL-10 level in LPS-indeced mouse RAW264.7 cells at 10 uM preincubated for 1 hr followed by LPS addition measured after 24 hrs by ELISA; type: functional, cell-based
[7] = tested on: RAW264.7; assay: Effect on IL-6 level in LPS-indeced mouse RAW264.7 cells at 10 uM preincubated for 1 hr followed by LPS addition measured after 24 hrs by ELISA; type: functional, cell-based
[8] = tested on: Mus musculus; assay: Anti-inflammatory activity in BALB/c mouse model of carrageenan-induced paw edema assessed as decrease in plasma 14,15-DHET levels at 10 mg/kg, po measured after 6 hrs; type: functional, organism-based
[9] = tested on: Mus musculus; assay: Anti-inflammatory activity in BALB/c mouse model of carrageenan-induced paw edema assessed as decrease in plasma 8,9-DHET levels at 10 mg/kg, po measured after 6 hrs; type: functional, organism-based
[10] = tested on: RAW264.7; assay: Effect on IL-10 level in LPS-indeced mouse RAW264.7 cells at 10 uM preincubated for 1 hr followed by LPS addition measured after 24 hrs by ELISA; type: functional, cell-based
[11] = tested on: RAW264.7; assay: Anti-inflammatory activity in LPS-indeced mouse RAW264.7 cells assessed as reduction in TNF-alpha level at 10 uM preincubated for 1 hr followed by LPS addition measured after 24 hrs by ELISA; type: functional, cell-based; conditions: time 25.0 hrs
[12] = tested on: Mus musculus; assay: Anti-inflammatory activity in BALB/c mouse model of carrageenan-induced paw edema assessed as increase in ratio of 14,15-EET to DHET plasma levels at 10 mg/kg, po measured after 6 hrs; type: functional, organism-based
[13] = tested on: Mus musculus; assay: Anti-inflammatory activity in BALB/c mouse model of carrageenan-induced paw edema assessed as decrease in plasma 11,12-DHET levels at 10 mg/kg, po measured after 6 hrs; type: functional, organism-based
[14] = tested on: Mus musculus; assay: Effect on liver sEH enzyme activity in BALB/c mouse model of carrageenan-induced paw edema at 1 to 10 mg/kg, po measured after 6 hrs; type: functional, organism-based; conditions: dose 1-10 mg/kg
[15] = tested on: Mus musculus; assay: Effect on liver sEH protein content in BALB/c mouse model of carrageenan-induced paw edema at 1 to 10 mg/kg, po measured after 6 hrs; type: functional, organism-based; conditions: dose 1-10 mg/kg
[16] = tested on: RAW264.7; assay: Anti-inflammatory activity in LPS-indeced mouse RAW264.7 cells assessed as reduction in IL-1beta level at 10 uM preincubated for 1 hr followed by LPS addition measured after 24 hrs by ELISA; type: functional, cell-based
[17] = tested on: Mus musculus; assay: Anti-inflammatory activity in BALB/c mouse model of carrageenan-induced paw edema assessed as inhibition of paw swelling at 10 mg/kg, po measured up to 6 hrs relative to control; type: functional
[18] = tested on: RAW264.7; assay: Anti-inflammatory activity in LPS-indeced mouse RAW264.7 cells assessed as reduction in IL-6 level at 10 uM preincubated for 1 hr followed by LPS addition measured after 24 hrs by ELISA; type: functional, cell-based

`COc1cc(OC)c2c(c1)C1Cc3ccc(NC(=O)NCc4ccc(OC(F)(F)F)cc4)cc3CN1CC2` (stereo not drawn) showed an inhibition in vivo at 20 mg/kg [1] of 24.7%, an inhibition in vivo at 20 mg/kg [2] of 38.5% and an IC50 [3] of 1.44 nM.
With `CC[C@H](C)C(=O)N1CCC(NC(=O)Nc2ccc(OC(F)(F)F)c(F)c2)CC1` the Activity [4] was “Active”, the Activity [5] was “Active” and the Activity [6] was “Active”. The Activity [7] was “No effect”, the Activity [8] was “Active” and the Activity [9] was “Active”. For the same compound, the Activity [10] was “No effect”, the Activity [11] was “Active” and the Activity [12] was “Active”. For the same compound, the Activity [13] was “Active”, the Activity [14] was “Active” and the Activity [15] was “Active”. For the same compound, the Activity [16] was “Active”, the Imax [17] was 30.6% and the Activity [18] was “Active”.
